One assay relates to WBC. As to the kind of experiment: Effect on WBC of magnetic trapping in the HT29/whole blood mixture with Fe2DG (FACS). The assay is classed as cell-based. The conditions noted are these: Fe2DG 1 mg per 1 ml in human whole blood, RT 2 hours, 30 min inside round magnet. As for the experimental part:
500 ul of HT29 suspension was added to 4 ml of fresh human volunteer whole blood. Fe2DG in final concentration 1 mg per 1 ml was added. The blood then was incubated in RT for 2 hours. Then the blood was divided on two portions. Both portions were placed inside of plastic tube (10 cm long, 3 mm outside diameter). One tube was placed inside of the round magnet, another tube was outside of the magnet. After incubation for 30 min; contents of both tubes were gently pushed out. RBC were lysed by adding 4 volumes of distillate water for 30 sec. Then PBS was added to restore osmolarity. After centrifugation for 5 min 1000 rpm and removing of supernatant, the pellet was resuspended in 0.5 ml of PBS and introduced for analysis by BD FACS Aria III

For assay [1], the system named is HT29 cells. The experiment in a line: Depletion of HT29 cells loaded with Fe2DG by external magnet in McCoy's 5A medium (microscopy). The conditions noted are these: Fe2DG 1 mg per 1 ml in McCoy's 5A medium with 10% FBS, RT 1 hour, 30 min inside round magnet vs outside, Hematoxylin stain. In kind it is cell-based, human. As for the experimental part: In this fourth Example, the effect of external magnet on suspension HT29 cells (human adenocarcinoma) in complete McCoy's 5A medium after adding of Fe2DG was studied. Suspension of HT29 cells (ATCC HTB-38) in McCoy's 5A medium with 10% of FBS was count by Countess automated cell counter (Invitrogen). Results: live cells 3.6×10^6/ml, dead cells 1.6×10^5/ml, Viability 96% Fe2DG was added to the cell suspension in final concentration 1 mg per 1 ml. Cells then were incubated in RT for 1 hour. Then the suspension was divided on two portions. Both portions were placed inside of plastic tube (10 cm long, 3 mm in diameter). One tube was placed inside of the round magnet, another tube was outside of the magnet. After incubation for 30 min; contains of both tubes were gently pushed out, and placed on the glass slide, and stained by Hematoxylin. Slides were examined under light microscope Olympus BX51 and pictures were taken using Olympus DP73 digital camera.

The test system of assay [2] is CRL-1790 cells (human fibroblasts). As to the kind of experiment: Prussian blue iron staining of CRL-1790 cells after incubation in medium with Fe2DG. In kind it is cell-based. As to conditions: Fe2DG 1 mg/ml in DMEM no glucose with 10% FBS, two hours. How it is done: In this third Example, the differential ability of normal vs cancer cells (higher for malignant cells) to accumulate Iron (Fe) from Fe2DG added to medium was studied. For routine maintenance, CCD 841 CoN human colon fibroblast cells (CRL-1790; ATCC, Manassas, Va.) were grown in EMEM complete growth medium (Cat. No. 30-2003; ATCC, Manassas, Va.) supplemented by 10% FBS, and 1× Penicillin/Streptomycin in an incubator at 37° C. and 5% CO2. Cells were passaged every 4 days. For Fe2DG treatments, CCD 841 CoN cells were grown in 25 cm^2 Nunclon Delta Surface flasks (Cat. No. 136196; Thermo Fisher Scientific, Waltham, Mass.) with EMEM complete medium and kept in an incubator at 37° C. and 5% CO2 until close to 75% confluence was reached. Then medium for both cell types was replaced by DMEM no glucose (ThermoFisher Cat. No. 11966025) supplemented by 10% FBS and Fe2DG 1 mg/ml for two hours. Then medium was removed and both flasks were stained by Prussian blue staining kit “Advanced testing Iron stain” (ThermoFisher Cat. No. 87006). Cells in the flasks were fixed by 10% Formalin, then rinsed by deionized water. Then the cells were stained by freshly prepared Working Iron Solution 30 minutes at room temperature. Then the cells were rinsed by deionized water and counterstain by Nuclear Red Satin Solution for 30 seconds. […]

Assay [3] concerns HT29 cells. As to the kind of experiment: Prussian blue iron staining of HT29 cells after incubation in medium with Fe2DG. The assay is classed as cell-based, human. The conditions noted are these: Fe2DG 1 mg/ml in DMEM no glucose with 10% FBS, two hours. As for the experimental part:
In this third Example, the differential ability of normal vs cancer cells (higher for malignant cells) to accumulate Iron (Fe) from Fe2DG added to medium was studied. For routine maintenance, HT29 cells (ATCC HTB-38) were grown in McCoy's 5 A complete growth medium (Cat. No. 30-2007; ATCC, Manassas, Va.) supplemented by 10% FBS, and 1× Penicillin/Streptomycin in an incubator at 37° C. and 5% CO2. Cells were passaged every 4 days. For Fe2DG treatments, HT29 cells (ATCC HTB-38) cells were grown in 25 cm^2 Nunclon Delta Surface flasks (Cat. No. 136196; Thermo Fisher Scientific, Waltham, Mass.) with McCoy's 5A complete medium and kept in an incubator at 37° C. and 5% CO2 until close to 75% confluence was reached. Then medium for both cell types was replaced by DMEM no glucose (ThermoFisher Cat. No. 11966025) supplemented by 10% FBS and Fe2DG 1 mg/ml for two hours. Then medium was removed and both flasks were stained by Prussian blue staining kit “Advanced testing Iron stain” (ThermoFisher Cat. No. 87006). Cells in the flasks were fixed by 10% Formalin, then rinsed by deionized water. Then the cells were stained by freshly prepared Working Iron Solution 30 minutes at room temperature. Then the cells were rinsed by deionized water and counterstain by Nuclear Red Satin Solution for 30 seconds. […]

The test system of another assay is A375-eGFP-puro cells. The experiment in a line: Enrichment of A375-eGFP-puro cells incubated with Fe2DG by external magnet from mixture with whole human blood (FACS). The conditions noted are these: Fe2DG 1 mg per 1 ml in human whole blood, RT 2 hours, 30 min in magnet; fraction #2 (tube out of magnet) vs fraction #1, FACS. In kind it is cell-based. How it is done: In this second Example, the effect of external magnet on suspension A375-eGFP-puro cells (human melanoma) in whole blood after adding of Fe2DG was studied.
A375-eGFP-puro cells (Imanis Life Science) has enhanced Green Fluorescent Protein as a reporter. And can be detected by fluorescent microscope of FACS because of green fluorescence.
For routine maintenance, A375-eGFP-puro cells were grown in DMEM complete growth medium (Cat. No. 30-2002; ATCC, Manassas, Va.) supplemented by 10% FBS, Penicillin/Streptomycin and 1 ug/ml Puromycin in an incubator at 37° C. and 5% CO2. Cells were passaged every 4 days. The cells were detached from flasks using trypsin and re-suspended in 5 mL of fresh DMEM medium.
500 ul of A375-eGFP-puro cells suspension was added to 4 ml of fresh human volunteer whole blood. Fe2DG in final concentration 1 mg per 1 ml was added. The blood then was incubated in RT for 2 hours. Then the blood was placed inside of plastic tube (10 cm long, 3 mm outside diameter). The tube was placed inside of the round magnet. After incubation for 30 min; 0.1 ml of the blood was gently pushed through the tube and through the magnet. […] After centrifugation for 5 min 1000 rpm and removing of supernatant, the pellet was resuspended in 0.5 ml of PBS and introduced for analysis by BD fluorescence-activated cell sorter (FACS) Aria III.

The test system of assay [4] is HT29 cells. As to the kind of experiment: Depletion of Fe2DG-loaded HT29 cells by external magnet from mixture with whole blood (FACS). In kind it is cell-based. As to conditions: Fe2DG 1 mg per 1 ml in human whole blood, RT 2 hours, 30 min inside round magnet vs outside. How it is done:
In this Example, the effect of external magnet on suspension HT29 cells (human adenocarcinoma) in whole blood after adding of Fe2DG was studied. For routine maintenance, HT29 cells (ATCC HTB-38) were grown in McCoy's 5A complete growth medium (Cat. No. 30-2007; ATCC, Manassas, Va.) supplemented by 10% FBS, and 1× Penicillin/Streptomycin in an incubator at 37° C. and 5% CO2. Cells were passaged every 4 days. The cells were detached from flasks using trypsin and re-suspended in 5 mL of fresh McCoy's 5A medium. Suspension of HT29 cells (ATCC HTB-38) was count by Countess automated cell counter (Invitrogen). Results: total 1.5×10^6/ml, live cells 1.4×10^6/ml, dead cells 1.3×10^5/ml, Viability 91% Cells were stained by BCECF AM (Life technologies Ref # B1150) intracellular fluorescent dye, according manufacturer instructions. 1 mg of BCECF AM (Invitrogen) was dissolved in 1 ml of DMSO and 10 aliquots were prepared. 1 aliquot was dissolved in 10 ml of Hank's Balanced Salt Solution to make working concentration (0.016 mM). Working solution of BCECF AM was added to HT29 cells suspension (5 ml of BCECF AM 5 ml of HT29 cells suspension in medium) and incubated in room temperature for 30 minutes in the dark. 500 ul of HT29 suspension was added to 4 ml of fresh human volunteer whole blood. Fe2DG in final concentration 1 mg per 1 ml was added. The blood then was incubated in RT for 2 hours. […]

Take Fe (III)-2 deoxy D glucose [Fe2DG]: in the assay on WBC, the “specificity of magnetic trapping: effect on WBC” value was “without affect WBC”. Besides, the “depletion of HT29 cells in the sample pushed out of the tube inside the magnet” value in the assay on HT29 cells [1] is recorded as “significant depletion”. Further, the “accumulation of iron (Prussian blue stain) in normal human fibroblasts (CRL-1790)” value in assay [2] is on record as “practically no accumulation of Iron”. Also, in the assay on HT29 cells [3], the “accumulation of iron (Prussian blue stain) in cancer cells (HT29)” value is on record as “significant accumulation of iron”. Moreover, the “enrichment of A375-eGFP-puro cells in the second fraction (2nd)” value in the assay on A375-eGFP-puro cells was 18.5 times. The “depletion of BCECF AM stained HT29 cells (gate 4) in the sample pushed out of the tube inside the magnet” value in the assay on HT29 cells [4] was “significant depletion”.

The record behind these values is patent US20200109394A1, “COMPOSITIONS AND METHODS FOR ISOLATING CIRCULATING CELLS” (Prescient Pharma LLC, priority 2018, published 2020).
